Reference: ChEMBL document CHEMBL1921676, “Pyrazolone-based anaplastic lymphoma kinase (ALK) inhibitors: control of selectivity by a benzyloxy group” (Bioorg Med Chem Lett, 2011)
Blank lines part the entries; values can stand above or below the molecule they belong to.

Legend:
Insulin receptor = Insulin receptor (Homo sapiens, UniProt P06213); assay: Inhibition of GST-tagged intracellular domain of IR by homogeneous time-resolved fluorescence assay; format: single protein
[1] = Half life in human liver microsomes
[2] = Half life in dog liver microsomes
[3] = Half life in rat liver microsomes
[4] = Half life in mouse liver microsomes
[5] = target: ALK tyrosine kinase receptor (Homo sapiens, UniProt Q9UM73); assay: Inhibition of ALK
ALK tyrosine kinase receptor, sequence (Q9UM73 whole entry): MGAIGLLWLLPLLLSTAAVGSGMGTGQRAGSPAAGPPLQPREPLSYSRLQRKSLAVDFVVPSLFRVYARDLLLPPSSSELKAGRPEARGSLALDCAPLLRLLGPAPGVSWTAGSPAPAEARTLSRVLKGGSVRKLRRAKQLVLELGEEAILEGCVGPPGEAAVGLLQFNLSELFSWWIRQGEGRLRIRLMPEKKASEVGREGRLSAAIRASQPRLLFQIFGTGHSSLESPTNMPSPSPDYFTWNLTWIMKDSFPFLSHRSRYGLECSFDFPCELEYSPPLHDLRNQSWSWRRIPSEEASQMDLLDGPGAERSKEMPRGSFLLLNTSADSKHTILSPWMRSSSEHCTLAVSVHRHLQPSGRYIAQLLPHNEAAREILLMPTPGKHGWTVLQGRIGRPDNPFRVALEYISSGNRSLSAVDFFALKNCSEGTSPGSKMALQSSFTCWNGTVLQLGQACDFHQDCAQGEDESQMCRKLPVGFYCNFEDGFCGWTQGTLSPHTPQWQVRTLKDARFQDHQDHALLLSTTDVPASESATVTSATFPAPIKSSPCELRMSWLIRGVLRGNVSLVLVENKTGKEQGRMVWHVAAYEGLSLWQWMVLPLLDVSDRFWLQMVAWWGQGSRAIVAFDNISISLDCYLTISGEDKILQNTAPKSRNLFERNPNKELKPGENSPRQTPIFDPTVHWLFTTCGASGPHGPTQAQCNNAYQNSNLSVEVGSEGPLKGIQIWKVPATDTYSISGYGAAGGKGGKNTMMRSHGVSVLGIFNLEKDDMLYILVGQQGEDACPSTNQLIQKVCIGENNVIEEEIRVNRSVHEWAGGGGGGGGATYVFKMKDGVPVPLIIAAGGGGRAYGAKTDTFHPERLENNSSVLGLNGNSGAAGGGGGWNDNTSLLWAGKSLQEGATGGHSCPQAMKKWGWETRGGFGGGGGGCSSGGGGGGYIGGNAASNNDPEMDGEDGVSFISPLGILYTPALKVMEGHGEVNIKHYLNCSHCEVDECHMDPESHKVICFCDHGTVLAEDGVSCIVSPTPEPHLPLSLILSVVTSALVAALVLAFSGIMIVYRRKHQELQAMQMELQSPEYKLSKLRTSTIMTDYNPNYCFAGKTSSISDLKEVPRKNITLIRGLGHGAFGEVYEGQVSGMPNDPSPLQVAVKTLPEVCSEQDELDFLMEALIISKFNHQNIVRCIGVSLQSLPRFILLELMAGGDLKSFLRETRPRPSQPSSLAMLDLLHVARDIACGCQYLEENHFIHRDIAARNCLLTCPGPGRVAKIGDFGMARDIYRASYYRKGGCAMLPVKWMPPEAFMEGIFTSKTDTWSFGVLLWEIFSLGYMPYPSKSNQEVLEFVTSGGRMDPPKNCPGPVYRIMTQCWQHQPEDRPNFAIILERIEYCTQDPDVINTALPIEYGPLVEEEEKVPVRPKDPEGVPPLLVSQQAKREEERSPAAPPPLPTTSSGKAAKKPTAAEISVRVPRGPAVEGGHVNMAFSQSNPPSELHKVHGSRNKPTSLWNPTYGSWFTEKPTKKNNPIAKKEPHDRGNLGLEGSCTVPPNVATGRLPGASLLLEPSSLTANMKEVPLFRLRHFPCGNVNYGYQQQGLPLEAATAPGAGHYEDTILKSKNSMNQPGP

[6] = Half life in rat at 1 mg/kg, iv; format: ADME, organism-based; set-up: dose 1 mg/kg, route intravenous; details: in vivo
[7] = Clearance in rat at 1 mg/kg, iv; format: ADME, organism-based; set-up: dose 1 mg/kg, route intravenous; details: in vivo
[8] = target: T1, Vascular endothelial growth factor receptor 2 (Homo sapiens, UniProt P35968); assay: Inhibition of human cytoplasmic domain of VEGFR-2 at 1 uM by time-resolved fluorescence assay
T1 sequence (P35968 whole entry, the tested form may be a part): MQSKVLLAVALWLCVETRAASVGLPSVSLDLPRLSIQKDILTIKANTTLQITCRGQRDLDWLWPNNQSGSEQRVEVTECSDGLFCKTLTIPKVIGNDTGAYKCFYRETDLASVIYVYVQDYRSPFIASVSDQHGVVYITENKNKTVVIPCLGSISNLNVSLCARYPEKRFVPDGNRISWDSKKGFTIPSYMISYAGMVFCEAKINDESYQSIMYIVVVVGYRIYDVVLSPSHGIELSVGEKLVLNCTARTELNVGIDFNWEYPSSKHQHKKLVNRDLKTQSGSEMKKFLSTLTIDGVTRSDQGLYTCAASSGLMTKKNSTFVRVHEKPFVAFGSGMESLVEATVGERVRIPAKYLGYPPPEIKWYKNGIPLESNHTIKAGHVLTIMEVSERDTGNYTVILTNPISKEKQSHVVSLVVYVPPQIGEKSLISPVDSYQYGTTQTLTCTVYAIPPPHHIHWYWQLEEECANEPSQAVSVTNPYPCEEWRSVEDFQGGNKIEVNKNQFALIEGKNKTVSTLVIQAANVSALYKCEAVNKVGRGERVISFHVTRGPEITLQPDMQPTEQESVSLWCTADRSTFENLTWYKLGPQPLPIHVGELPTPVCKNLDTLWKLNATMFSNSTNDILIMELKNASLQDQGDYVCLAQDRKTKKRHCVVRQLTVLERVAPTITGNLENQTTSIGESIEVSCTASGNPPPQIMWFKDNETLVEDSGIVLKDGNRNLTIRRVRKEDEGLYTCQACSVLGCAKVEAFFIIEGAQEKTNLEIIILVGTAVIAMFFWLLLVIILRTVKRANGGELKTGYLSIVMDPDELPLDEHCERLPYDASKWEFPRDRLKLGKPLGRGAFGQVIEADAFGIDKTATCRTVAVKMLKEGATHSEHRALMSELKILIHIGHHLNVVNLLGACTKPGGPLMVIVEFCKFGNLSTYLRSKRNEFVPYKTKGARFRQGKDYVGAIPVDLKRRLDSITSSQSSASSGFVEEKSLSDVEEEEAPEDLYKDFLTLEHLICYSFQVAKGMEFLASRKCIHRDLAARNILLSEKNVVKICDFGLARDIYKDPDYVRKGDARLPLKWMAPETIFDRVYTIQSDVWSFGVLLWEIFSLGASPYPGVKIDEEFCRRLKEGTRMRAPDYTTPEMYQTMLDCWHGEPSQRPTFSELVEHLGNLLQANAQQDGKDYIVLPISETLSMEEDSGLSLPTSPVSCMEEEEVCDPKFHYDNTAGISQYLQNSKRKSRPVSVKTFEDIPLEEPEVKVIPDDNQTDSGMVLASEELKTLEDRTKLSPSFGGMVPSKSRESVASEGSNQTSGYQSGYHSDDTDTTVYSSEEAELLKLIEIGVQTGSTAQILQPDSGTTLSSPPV

[9] = AUC in rat at 5 mg/kg, po; format: ADME, organism-based; set-up: dose 5 mg/kg, route oral; details: plasma
[10] = AUC in rat at 1 mg/kg, iv; format: ADME, organism-based; set-up: dose 1 mg/kg, route intravenous; details: plasma
[11] = Volume of distribution in rat at 1 mg/kg, iv; format: ADME, organism-based; set-up: dose 1 mg/kg, route intravenous; details: in vivo
[12] = target: T1, Vascular endothelial growth factor receptor 2; assay: Inhibition of human cytoplasmic domain of VEGFR-2 by time-resolved fluorescence assay

- IC50 (Insulin receptor): 6500 nM
- half-life ([1]; liver microsomes): 14 min
- half-life ([2]; liver microsomes): 12 min
- half-life ([3]; liver microsomes): 10 min
- half-life ([4]; liver microsomes): 8 min
Compound: Cn1cc(/C=C2\C(=O)NN=C2c2nccs2)c2c(OCc3cccc(F)c3F)cccc21

- IC50 [5]: 229 nM
Compound: Cn1cc(/C=C2\C(=O)NN=C2c2nccs2)c2c(OCc3ccc(F)cc3F)cccc21

- IC50 [5]: 158 nM
Compound: Cc1nnsc1C1=NNC(=O)/C1=C\c1cn(C)c2cccc(OCc3ccccn3)c12

- IC50 [5]: 54 nM
Compound: Cn1cc(/C=C2\C(=O)NN=C2c2cccnc2)c2c(OCc3ccccc3)cccc21

- IC50 [5]: 10000 nM
Compound: Cn1cc(/C=C2\C(=O)NN=C2c2nc(C(F)(F)F)cs2)c2c(OCc3ccccc3)cccc21

- IC50 (Insulin receptor): 720 nM
Compound: Cc1nnsc1C1=NNC(=O)/C1=C\c1cn(C)c2cccc(OCc3c(F)cccc3Cl)c12

- IC50 [5]: 291 nM
Compound: Cc1nnsc1C1=NNC(=O)/C1=C\c1cn(C)c2cccc(OCCN(C)C)c12

- IC50 (Insulin receptor): > 10000 nM
Compound: Cc1nnsc1C1=NNC(=O)/C1=C\c1cn(C)c2cccc(OCc3ccccc3F)c12

- half-life [6]: 41.4 min
- clearance [7]: 19.6 mL/min
- inhibition [8]: 50%
- AUC [9]: 13 ng·h/mL
- AUC [10]: 972 ng·h/mL
- IC50 (Insulin receptor): 9120 nM
- half-life ([1]; microsomes): 30 min
- half-life ([2]; microsomes): 22 min
- half-life ([3]; microsomes): 30 min
- Vd [11]: 1.2 L/kg
- half-life ([4]; microsomes): 25 min
Compound: Cn1cc(/C=C2\C(=O)NN=C2c2nccs2)c2c(OCc3ccccc3)cccc21

- IC50 [5]: 63 nM
Compound: Cn1cc(/C=C2\C(=O)NN=C2c2nccs2)c2c(OCc3ccc(F)cc3)cccc21

- IC50 (Insulin receptor): 1410 nM
Compound: Cn1cc(/C=C2\C(=O)NN=C2c2nccs2)c2c(OCc3c(F)cccc3Cl)cccc21

- IC50 (Insulin receptor): > 1000 nM
Compound: Cc1nnsc1C1=NNC(=O)/C1=C\c1cn(C)c2cccc(OCc3c(F)cccc3F)c12

- IC50 (Insulin receptor): > 10000 nM
Compound: Cc1nnsc1C1=NNC(=O)/C1=C\c1cn(C)c2cccc(OCc3ccc(F)cc3F)c12

- IC50 (Insulin receptor): > 10000 nM
Compound: CC(Oc1cccc2c1c(/C=C1\C(=O)NN=C1c1nccs1)cn2C)c1ccccc1 (stereo not drawn)

- inhibition [8]: 50%
- IC50 (Insulin receptor): > 1000 nM
- half-life ([1]; liver microsomes): 10 min
- half-life ([2]; liver microsomes): 8 min
- half-life ([3]; liver microsomes): 8 min
- half-life ([4]; liver microsomes): 6 min
Compound: Cn1cc(/C=C2\C(=O)NN=C2c2nccs2)c2c(OCc3cccc(F)c3)cccc21

- IC50 (Insulin receptor): > 10000 nM
Compound: Cc1nnsc1C1=NNC(=O)/C1=C\c1cn(C)c2cccc(OCc3cccc(F)c3)c12

- IC50 [12]: > 300 nM
- IC50 (Insulin receptor): > 10000 nM
- half-life ([1]; liver microsomes): 32 min
- half-life ([2]; liver microsomes): 29 min
- half-life ([3]; liver microsomes): > 40 min
- half-life ([4]; liver microsomes): > 40 min
Compound: Cc1nnsc1C1=NNC(=O)/C1=C\c1cn(C)c2cccc(OCc3ccccc3)c12

- IC50 (Insulin receptor): 428 nM
- half-life ([1]; microsomes): 7 min
- half-life ([2]; microsomes): 10 min
- half-life ([3]; microsomes): 6 min
- half-life ([4]; microsomes): 6 min
Compound: Cn1cc(/C=C2\C(=O)NN=C2c2nccs2)c2c(OCc3c(F)cccc3F)cccc21

- IC50 (Insulin receptor): 998 nM
- half-life ([1]; microsomes): 6 min
- half-life ([2]; microsomes): 5 min
- half-life ([3]; microsomes): 5 min
- half-life ([4]; microsomes): 5 min
Compound: CCOc1cccc2c1c(/C=C1\C(=O)NN=C1c1snnc1C)cn2C

- IC50 [5]: 4600 nM
Compound: CN(C)c1nnc(C2=NNC(=O)/C2=C\c2cn(C)c3cccc(OCc4ccccc4)c23)s1

- IC50 [5]: 3000 nM
Compound: Cc1nc(COc2cccc3c2c(/C=C2\C(=O)NN=C2c2snnc2C)cn3C)cs1

- IC50 (Insulin receptor): 861 nM
Compound: Cc1nnsc1C1=NNC(=O)/C1=C\c1cn(C)c2cccc(OCc3c(F)ccc(Cl)c3F)c12

- IC50 (Insulin receptor): > 10000 nM
Compound: Cc1nnsc1C1=NNC(=O)/C1=C\c1cn(C)c2cccc(OCc3ccc(F)cc3)c12

- IC50 (Insulin receptor): 661 nM
Compound: Cc1nnsc1C1=NNC(=O)/C1=C\c1cn(C)c2cccc(OCc3c(F)ccc(F)c3Cl)c12

- IC50 (Insulin receptor): > 10000 nM
Compound: Cn1cc(/C=C2\C(=O)NN=C2c2nccs2)c2c(OCc3ccccc3F)cccc21

- IC50 [5]: 104 nM
Compound: Cn1cc(/C=C2\C(=O)NN=C2c2cccs2)c2c(OCc3ccccc3)cccc21
